Reference: ChEMBL document CHEMBL5608163, “Structure modification of anoplin for fighting resistant bacteria” (Eur J Med Chem, 2024)
Converted amounts (≈) assume the structure as drawn. Square brackets hold non-standard residues; d marks the D form. Peptide text beside a SMILES is read from it. * marks the point of attachment. Pentadecanoyl = CCCCCCCCCCCCCCC(=O)*; NMeR = CN[C@@H](CCCNC(=N)N)C(=O)O; Tridecanoyl = CCCCCCCCCCCCC(=O)*; Undecanoyl = CCCCCCCCCCC(=O)*; NMeK = CN[C@@H](CCCCN)C(=O)O; Nonanoyl = CCCCCCCCC(=O)*

Assays:
[1] = system: Escherichia coli; assay: Antibacterial activity against Escherichia coli; type: functional
[2] = system: Staphylococcus aureus; assay: Antibacterial activity against Staphylococcus aureus; type: functional
[3] = system: Escherichia coli; assay: Antibacterial activity against Escherichia coli ATCC 25922 assessed as reduction in bacterial growth measured after 24 hrs by Mueller-Hinton broth based two-fold serial dilution method; type: functional
[4] = system: Staphylococcus aureus; assay: Antibacterial activity against Staphylococcus aureus ATCC 25923 assessed as reduction in bacterial growth measured after 24 hrs by Mueller-Hinton broth based two-fold serial dilution method; type: functional
[5] = system: Escherichia coli; assay: Antibacterial activity against Escherichia coli ATCC 25922 assessed as reduction in bacterial cell growth measured for 18 hrs by Mueller-Hinton broth based two-fold serial dilution method; type: functional
[6] = system: Pseudomonas aeruginosa; assay: Antibacterial activity against Pseudomonas aeruginosa ATCC 27853 assessed as reduction in bacterial cell growth measured for 18 hrs by Mueller-Hinton broth based two-fold serial dilution method; type: functional
[7] = system: Staphylococcus aureus; assay: Antibacterial activity against Staphylococcus aureus ATCC 25923 assessed as reduction in bacterial cell growth measured for 18 hrs by Mueller-Hinton broth based two-fold serial dilution method; type: functional
[8] = Hemolytic activity in mouse Red blood cells incubated for 1 hr by microplate reader assay; type: toxicity, cell-based, Erythrocyte; details: red blood cells
[9] = system: Klebsiella pneumoniae; assay: Antibacterial activity against Klebsiella pneumoniae ATCC 700603 assessed as reduction in bacterial cell growth measured for 18 hrs by Mueller-Hinton broth based two-fold serial dilution method; type: functional
[10] = Hemolytic activity in mouse erythrocyte incubated for 1 hr by microplate reader analysis; type: toxicity, cell-based; details: erythrocytes
[11] = system: Bacillus subtilis; assay: Antibacterial activity against Bacillus subtilis ATCC 23857 assessed as reduction in bacterial cell growth measured for 18 hrs by Mueller-Hinton broth based two-fold serial dilution method; type: functional

MIC [1] | MIC [2] | MIC [3] | MIC [4] | MIC [5] | MIC [6] | MIC [7] | MIC [9] | MIC [11] | SMILES | HC50 at 1 h [8] | HC50 at 1 h [10]
5 µM (≈ 5.97 µg/mL) | 7.5 µM (≈ 8.96 µg/mL) | – | – | – | – | – | – | – | CC[C@H](C)[C@H](NC(=O)[C@@H](NC(=O)[C@H](CCCCN)NC(=O)[C@H](CC(C)C)NC(=O)[C@H](CC(C)C)NC(=O)[C@@H](N)CCCCN)C(C)C)C(=O)N[C@@H](CCCCN)C(=O)N[C@@H](CCCCN)C(=O)N[C@@H](CC(C)C)C(=O)N[C@@H](CC(C)C)C(N)=O (H-KLLKVIKKLL-NH2) | – | –
– | – | 54.7 µM (≈ 60 µg/mL) | > 54.7 µM | – | – | – | – | – | CC[C@H](C)[C@H](NC(=O)[C@H](CCCNC(=N)N)NC(=O)[C@H](CCCCN)NC(=O)[C@H](CC(C)C)NC(=O)[C@@H](N)CC(C)C)C(=O)N[C@@H](CCCCN)C(=O)N[C@H](C(=O)N[C@@H](CC(C)C)C(=O)N[C@@H](CC(C)C)C(N)=O)[C@@H](C)O (H-LLKRIKTLL-NH2) | – | –
– | – | – | – | 128 µM (≈ 169 µg/mL) | 32 µM (≈ 42.3 µg/mL) | 128 µM (≈ 169 µg/mL) | > 128 µM | 8 µM (≈ 10.6 µg/mL) | CCCCCCCCC(=O)NCC(=O)N[C@@H](CC(C)C)C(=O)N[C@@H](CC(C)C)C(=O)N[C@@H](CCCCN)C(=O)N(C)[C@@H](CCCNC(=N)N)C(=O)N[C@H](C(=O)N(C)[C@@H](CCCCN)C(=O)N[C@H](C(=O)N[C@@H](CC(C)C)C(=O)N[C@@H](CC(C)C)C(N)=O)[C@@H](C)O)[C@@H](C)CC (Nonanoyl-GLLK[NMeR]I[NMeK]TLL-NH2) | > 256 µM | > 256 µM
– | – | – | – | 128 µM (≈ 169 µg/mL) | 32 µM (≈ 42.3 µg/mL) | 128 µM (≈ 169 µg/mL) | > 128 µM | 16 µM (≈ 21.1 µg/mL) | CCCCCCCCC(=O)NCC(=O)N[C@@H](CC(C)C)C(=O)N[C@@H](CC(C)C)C(=O)N(C)[C@@H](CCCCN)C(=O)N[C@@H](CCCNC(=N)N)C(=O)N[C@H](C(=O)N(C)[C@@H](CCCCN)C(=O)N[C@H](C(=O)N[C@@H](CC(C)C)C(=O)N[C@@H](CC(C)C)C(N)=O)[C@@H](C)O)[C@@H](C)CC (Nonanoyl-GLL[NMeK]RI[NMeK]TLL-NH2) | > 256 µM | > 256 µM
– | – | – | – | 16 µM (≈ 22.5 µg/mL) | 16 µM (≈ 22.5 µg/mL) | 16 µM (≈ 22.5 µg/mL) | 32 µM (≈ 45 µg/mL) | 8 µM (≈ 11.2 µg/mL) | CCCCCCCCCCCCCCC(=O)NCC(=O)N[C@@H](CC(C)C)C(=O)N[C@@H](CC(C)C)C(=O)N[C@@H](CCCCN)C(=O)N(C)[C@@H](CCCNC(=N)N)C(=O)N[C@H](C(=O)N(C)[C@@H](CCCCN)C(=O)N[C@H](C(=O)N[C@@H](CC(C)C)C(=O)N[C@@H](CC(C)C)C(N)=O)[C@@H](C)O)[C@@H](C)CC (Pentadecanoyl-GLLK[NMeR]I[NMeK]TLL-NH2) | 64 µM | 64 µM
– | – | – | – | 16 µM (≈ 22.5 µg/mL) | 16 µM (≈ 22.5 µg/mL) | 8 µM (≈ 11.2 µg/mL) | 32 µM (≈ 45 µg/mL) | 8 µM (≈ 11.2 µg/mL) | CCCCCCCCCCCCCCC(=O)NCC(=O)N[C@@H](CC(C)C)C(=O)N[C@@H](CC(C)C)C(=O)N(C)[C@@H](CCCCN)C(=O)N[C@@H](CCCNC(=N)N)C(=O)N[C@H](C(=O)N(C)[C@@H](CCCCN)C(=O)N[C@H](C(=O)N[C@@H](CC(C)C)C(=O)N[C@@H](CC(C)C)C(N)=O)[C@@H](C)O)[C@@H](C)CC (Pentadecanoyl-GLL[NMeK]RI[NMeK]TLL-NH2) | 64 µM | 64 µM
– | – | – | – | 8 µM (≈ 11 µg/mL) | 8 µM (≈ 11 µg/mL) | 8 µM (≈ 11 µg/mL) | 32 µM (≈ 44.1 µg/mL) | 4 µM (≈ 5.51 µg/mL) | CCCCCCCCCCCCC(=O)NCC(=O)N[C@@H](CC(C)C)C(=O)N[C@@H](CC(C)C)C(=O)N[C@@H](CCCCN)C(=O)N(C)[C@@H](CCCNC(=N)N)C(=O)N[C@H](C(=O)N(C)[C@@H](CCCCN)C(=O)N[C@H](C(=O)N[C@@H](CC(C)C)C(=O)N[C@@H](CC(C)C)C(N)=O)[C@@H](C)O)[C@@H](C)CC (Tridecanoyl-GLLK[NMeR]I[NMeK]TLL-NH2) | 64 µM | 64 µM
– | – | – | – | 16 µM (≈ 22 µg/mL) | 8 µM (≈ 11 µg/mL) | 8 µM (≈ 11 µg/mL) | 64 µM (≈ 88.2 µg/mL) | 4 µM (≈ 5.51 µg/mL) | CCCCCCCCCCCCC(=O)NCC(=O)N[C@@H](CC(C)C)C(=O)N[C@@H](CC(C)C)C(=O)N(C)[C@@H](CCCCN)C(=O)N[C@@H](CCCNC(=N)N)C(=O)N[C@H](C(=O)N(C)[C@@H](CCCCN)C(=O)N[C@H](C(=O)N[C@@H](CC(C)C)C(=O)N[C@@H](CC(C)C)C(N)=O)[C@@H](C)O)[C@@H](C)CC (Tridecanoyl-GLL[NMeK]RI[NMeK]TLL-NH2) | 64 µM | 64 µM
– | – | – | – | 16 µM (≈ 21.6 µg/mL) | 8 µM (≈ 10.8 µg/mL) | 32 µM (≈ 43.2 µg/mL) | 128 µM (≈ 173 µg/mL) | 8 µM (≈ 10.8 µg/mL) | CCCCCCCCCCC(=O)NCC(=O)N[C@@H](CC(C)C)C(=O)N[C@@H](CC(C)C)C(=O)N[C@@H](CCCCN)C(=O)N(C)[C@@H](CCCNC(=N)N)C(=O)N[C@H](C(=O)N(C)[C@@H](CCCCN)C(=O)N[C@H](C(=O)N[C@@H](CC(C)C)C(=O)N[C@@H](CC(C)C)C(N)=O)[C@@H](C)O)[C@@H](C)CC (Undecanoyl-GLLK[NMeR]I[NMeK]TLL-NH2) | > 256 µM | > 256 µM
– | – | – | – | 32 µM (≈ 43.2 µg/mL) | 8 µM (≈ 10.8 µg/mL) | 32 µM (≈ 43.2 µg/mL) | > 128 µM | 4 µM (≈ 5.4 µg/mL) | CCCCCCCCCCC(=O)NCC(=O)N[C@@H](CC(C)C)C(=O)N[C@@H](CC(C)C)C(=O)N(C)[C@@H](CCCCN)C(=O)N[C@@H](CCCNC(=N)N)C(=O)N[C@H](C(=O)N(C)[C@@H](CCCCN)C(=O)N[C@H](C(=O)N[C@@H](CC(C)C)C(=O)N[C@@H](CC(C)C)C(N)=O)[C@@H](C)O)[C@@H](C)CC (Undecanoyl-GLL[NMeK]RI[NMeK]TLL-NH2) | > 256 µM | > 256 µM
